Patent US9850283B2, “Macrocyclic inhibitors of the PD-1/PD-L1 and CD80(B7-1)/PD-L1 protein/protein interactions” (BRISTOL-MYERS SQUIBB COMPANY, priority 2013, dated 2017)
Like-named read-outs stand apart in the source and are kept apart here. Starred links: 1 amine or outer side, 2 acyl side, 3 side chain; linkers in the order of their positions; H or OH if unused. Positions of bridges follow the written chain, without caps; N, C: chain ends. Non-standard residues stand in square brackets, D forms with d. Residues, ends and D or L forms follow the SMILES beside them. Ala(benzothiazol-2-yl) = N[C@@H](Cc1nc2ccccc2s1)C(=O)O; Phe(3,4,5-F3) = N[C@@H](Cc1cc(F)c(F)c(F)c1)C(=O)O; Phe(4-CH2NH2) = NCc1ccc(C[C@H](N)C(=O)O)cc1; d(cisHyp) = O=C(O)[C@H]1C[C@@H](O)CN1; Bta = N[C@@H](Cc1csc2ccccc12)C(=O)O; Hyp = O=C(O)[C@@H]1C[C@@H](O)CN1; NMeF = CN[C@@H](Cc1ccccc1)C(=O)O; X4 = O=C([C@H]1COCCN1[*:1])[*:2]; NMehSer = CN[C@@H](CCO)C(=O)O; NMeNle = CCCC[C@H](NC)C(=O)O; NMeA = CN[C@@H](C)C(=O)O; Orn = NCCC[C@H](N)C(=O)O; Dab = NCC[C@H](N)C(=O)O; Sar = CNCC(=O)O

Assays:
[1] = biological target: T1, LK35.2-hPD-L1 cells / PE-labeled PD-1-Ig (Homo sapiens, UniProt Q9NZQ7); experiment: LK35.2-hPD-L1 cell binding high-content screening assay; type: cell-based; settings: cluster symbol, read-out: CBA IC50 cluster
T1 construct: expressed in transfected cells; host or cells: LK35.2 mouse B cell line
T1 sequence (Q9NZQ7 19-290): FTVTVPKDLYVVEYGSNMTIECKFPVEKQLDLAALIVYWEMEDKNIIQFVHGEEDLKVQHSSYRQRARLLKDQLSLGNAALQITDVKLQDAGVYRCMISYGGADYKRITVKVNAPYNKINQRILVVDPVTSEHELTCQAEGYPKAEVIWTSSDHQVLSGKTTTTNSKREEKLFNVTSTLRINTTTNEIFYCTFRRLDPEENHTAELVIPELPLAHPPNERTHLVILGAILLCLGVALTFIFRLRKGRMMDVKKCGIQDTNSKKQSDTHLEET
How it was run: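 Compound effect on PD-1/PD-L1 binding is measured by imaging cell-associated phycoerythrin signal. Human PD-1-Ig (PE on Ig tag, 1 nM final) is applied with compound to a murine B cell line overexpressing human PD-L1 for 1 h at 37 °C in serum-containing RPMI.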

[2] = biological target: T2, Human PD-L1/PD-1 (Homo sapiens, UniProt Q9NZQ7); experiment: HTRF PD-1-Ig/PD-L1-His binding assay (human PD-L1); settings: cluster symbol; read-out: HTRF IC50 cluster
T2 construct: made in house; host or cells: HEK293T
T2 sequence (Q9NZQ7 with tags, fused parts or gaps): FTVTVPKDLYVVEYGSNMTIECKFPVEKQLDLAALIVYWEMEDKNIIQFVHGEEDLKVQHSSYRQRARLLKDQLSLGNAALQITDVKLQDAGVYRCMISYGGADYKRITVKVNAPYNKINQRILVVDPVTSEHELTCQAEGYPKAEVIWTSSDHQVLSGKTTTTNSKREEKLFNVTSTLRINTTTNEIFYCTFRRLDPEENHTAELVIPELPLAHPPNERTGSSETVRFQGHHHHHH
How it was run: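 Ig- and His-fused extracellular PD-1/PD-L1 binding in BSA/Tween-20 dPBS. HTRF with Eu anti-Ig (1 nM final) and APC anti-His (20 nM final).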

[3] = cell binding assay, cell line not given
[4] = cell line of CBA not given (LK35.2-hPD-L1 or 293T-hPD-L1)

| Structure (SMILES) | IC50 [1, 3] | IC50 [2] | IC50 [1, 4] |
| --- | --- | --- | --- |
| CCCC[C@H]1C(=O)N(C)[C@@H](CCCC)C(=O)N[C@@H](Cc2ccccn2)C(=O)N[C@H](C(=O)NCC(N)=O)CSCC(=O)N[C@@H](Cc2ccc(O)cc2)C(=O)N(C)[C@@H](C)C(=O)N[C@@H](CC(N)=O)C(=O)N2CCC[C@H]2C(=O)N[C@@H](Cc2cnc[nH]2)C(=O)N[C@@H](CC(C)C)C(=O)N2C[C@H](O)C[C@H]2C(=O)N[C@@H](Cc2c[nH]c3ccccc23)C(=O)N[C@@H](CO)C(=O)N[C@@H](Cc2c[nH]c3ccccc23)C(=O)N1C [Example 7032] | 4.78 to 72.9 nM | 0.385 to 6.74 nM |  |
| CCCC[C@H]1C(=O)N(C)CC(=O)N[C@@H](CC(=O)O)C(=O)N[C@@H](C(C)C)C(=O)N(C)[C@@H](Cc2ccccc2)C(=O)N[C@@H](Cc2ccc(O)cc2)C(=O)N(C)CC(=O)N[C@@H](Cc2c[nH]c3ccccc23)C(=O)N[C@@H](Cc2ccc(O)cc2)C(=O)N[C@@H](CC(C)C)C(=O)N[C@H](C(=O)NCC(N)=O)CSCC(=O)N(C)[C@@H](Cc2ccccc2)C(=O)N1C [Example 3052] (HELM PEPTIDE1{[O=C(C[*:3])[*:2]].[meF].[CCCC[C@@H](C(=O)[*:2])N(C)[*:1]].[Sar].D.V.[meF].Y.[Sar].W.Y.L.C.G.[am]}$PEPTIDE1,PEPTIDE1,1:R3-13:R3$$$V2.0) |  | > 30.5 nM | > 74.3 nM |
| CCCC[C@H]1C(=O)N(C)[C@@H](CCCC)C(=O)N[C@@H](C)C(=O)N[C@H](C(=O)NCC(N)=O)CSCC(=O)N[C@@H](Cc2ccc(O)cc2)C(=O)N(C)[C@@H](C)C(=O)N[C@@H](CC(=O)O)C(=O)N2CCC[C@H]2C(=O)N[C@@H](Cc2cnc[nH]2)C(=O)N[C@@H](CC(C)C)C(=O)N2CCC[C@H]2C(=O)N[C@@H](Cc2c[nH]c3ccccc23)C(=O)N[C@@H](CO)C(=O)N[C@@H](Cc2c[nH]c3ccccc23)C(=O)N1C [Example 1121] ({CH2CO}-Y[NMeA]DPHLPWSW[NMeNle][NMeNle]ACG-NH2; thioether N-14) |  | 6.76 to 30.3 nM | 0.158 to 4.71 nM |
| CCCC[C@H]1C(=O)N2C[C@H](O)C[C@@H]2C(=O)N[C@@H](CC(N)=O)C(=O)N[C@@H](C(C)C)C(=O)N(C)[C@@H](Cc2ccccc2)C(=O)N[C@@H](CCC(=O)O)C(=O)N2CCOC[C@@H]2C(=O)N[C@@H](Cc2c[nH]c3ccccc23)C(=O)N[C@@H](Cc2ccc(O)cc2)C(=O)N[C@@H](CCCN)C(=O)N[C@H](C(=O)NCC(N)=O)CSCC(=O)N[C@@H](Cc2cc(F)c(F)c(F)c2)C(=O)N(C)[C@@H](Cc2ccccc2)C(=O)N1C [Example 3608] ({CH2CO}-[Phe(3,4,5-F3)][NMeF][NMeNle][d(cisHyp)]NV[NMeF]E[X4]WY[Orn]CG-NH2; thioether N-13) | 0.158 to 4.71 nM | 0.385 to 6.74 nM |  |
| CCCC[C@H]1C(=O)N(C)[C@@H](CCCC)C(=O)N[C@@H](CCCNC(=N)N)C(=O)N[C@H](C(=O)NCC(N)=O)CSCC(=O)N[C@@H](Cc2ccccc2)C(=O)N(C)[C@@H](C)C(=O)N[C@@H](CC(N)=O)C(=O)N2CCC[C@H]2C(=O)N[C@@H](Cc2cnc[nH]2)C(=O)NCC(=O)N(C)CC(=O)N[C@@H](Cc2c[nH]c3ccccc23)C(=O)N[C@@H](CO)C(=O)N[C@@H](Cc2c[nH]c3ccccc23)C(=O)N1C [Example 1053] ({CH2CO}-F[NMeA]NPHG[Sar]WSW[NMeNle][NMeNle]RCG-NH2; thioether N-14) |  | > 30.5 nM | > 74.3 nM |
| CCCC[C@@H]1C(=O)N(C)[C@H](CCCC)C(=O)N[C@@H](CCCN)C(=O)N[C@@H](C(=O)NCC(N)=O)CSCC(=O)N[C@@H](Cc2ccc(O)cc2)C(=O)N2CCNCC2C(=O)N[C@H](CC(N)=O)C(=O)N2CCC[C@H]2C(=O)N[C@H](Cc2c[nH]cn2)C(=O)N[C@@H](CC(C)C)C(=O)N2C[C@H](O)CC2C(=O)N[C@H](Cc2c[nH]c3ccccc23)C(=O)N[C@@H](CO)C(=O)N[C@@H](Cc2c[nH]c3ccccc23)C(=O)N1C (stereo partly shown) [Example 1220] |  | 6.76 to 30.3 nM | 4.78 to 72.9 nM |
| CCCC[C@H]1C(=O)N(C)[C@@H](CCCC)C(=O)N[C@@H](CCCNC(=N)N)C(=O)N[C@H](C(=O)NCC(N)=O)CSCC(=O)N[C@@H](Cc2ccc(O)cc2)C(=O)N(C)[C@@H](C)C(=O)N[C@@H](CCC(=O)O)C(=O)N2CCC[C@H]2C(=O)N[C@@H](Cc2cnc[nH]2)C(=O)N[C@@H](CC(C)C)C(=O)N2CCC[C@H]2C(=O)N[C@@H](Cc2c[nH]c3ccccc23)C(=O)N[C@@H](CO)C(=O)N[C@@H](Cc2c[nH]c3ccccc23)C(=O)N1C [Example 1167] ({CH2CO}-Y[NMeA]EPHLPWSW[NMeNle][NMeNle]RCG-NH2; thioether N-14) |  | 0.385 to 6.74 nM | 0.158 to 4.71 nM |
| CCCC[C@H]1C(=O)N(C)CC(=O)N[C@@H](CC(=O)O)C(=O)N[C@@H](C(C)C)C(=O)N(C)[C@@H](Cc2ccccc2)C(=O)N[C@@H](Cc2ccc(CN)cc2)C(=O)N(C)CC(=O)N[C@@H](Cc2csc3ccccc23)C(=O)N[C@@H](Cc2ccc(O)cc2)C(=O)N[C@@H](CC(C)C)C(=O)N[C@H](C(=O)NCC(N)=O)CSCC(=O)N[C@@H](Cc2ccccc2)C(=O)N(C)[C@@H](Cc2ccccc2)C(=O)N1C [Example 3141] ({CH2CO}-F[NMeF][NMeNle][Sar]DV[NMeF][Phe(4-CH2NH2)][Sar][Bta]YLCG-NH2; thioether N-13) |  | 6.76 to 30.3 nM | 4.78 to 72.9 nM |
| CCCC[C@H]1C(=O)N(C)[C@@H](CCCC)C(=O)N[C@@H](CCCNC(=N)N)C(=O)N[C@H](C(=O)NCC(N)=O)CSCC(=O)N[C@@H](Cc2ccccc2)C(=O)N(C)[C@@H](C)C(=O)N[C@@H](CC(N)=O)C(=O)N2CCC[C@H]2C(=O)N[C@@H](Cc2cnc[nH]2)C(=O)N[C@@H](CC(C)C)C(=O)N2C[C@H](O)C[C@H]2C(=O)N[C@@H](Cc2c[nH]c3ccccc23)C(=O)N[C@@H](CO)C(=O)N[C@@H](Cc2c[nH]c3ccccc23)C(=O)N1C [Example 1087] ({CH2CO}-F[NMeA]NPHL[Hyp]WSW[NMeNle][NMeNle]RCG-NH2; thioether N-14) |  | 0.385 to 6.74 nM | 0.158 to 4.71 nM |
| CCCC[C@H]1C(=O)N(C)CC(=O)N[C@@H](CC(=O)O)C(=O)N[C@@H](C(C)C)C(=O)N(C)[C@@H](Cc2ccccc2)C(=O)N[C@@H](Cc2ccc(O)cc2)C(=O)N(C)CC(=O)N[C@@H](Cc2c[nH]c3ccccc23)C(=O)N[C@@H](Cc2nc3ccccc3s2)C(=O)N[C@@H](CC(C)C)C(=O)N[C@H](C(=O)NCC(N)=O)CSCC(=O)N[C@@H](Cc2ccccc2)C(=O)N(C)[C@@H](Cc2ccccc2)C(=O)N1C [Example 3558] ({CH2CO}-F[NMeF][NMeNle][Sar]DV[NMeF]Y[Sar]W[Ala(benzothiazol-2-yl)]LCG-NH2; thioether N-13) | > 74.3 nM | > 30.5 nM |  |
| CCCC[C@H]1C(=O)N(C)[C@@H](CCCC)C(=O)N[C@@H](CC(C)C)C(=O)N[C@H](C(=O)NCC(N)=O)CSCC(=O)N[C@@H](Cc2ccc(O)cc2)C(=O)N(C)[C@@H](C)C(=O)N[C@@H](CC(=O)O)C(=O)N2CCC[C@H]2C(=O)N[C@@H](Cc2cnc[nH]2)C(=O)N[C@@H](CC(C)C)C(=O)N2C[C@H](O)C[C@H]2C(=O)N[C@@H](Cc2c[nH]c3ccccc23)C(=O)N[C@@H](CCN)C(=O)N[C@@H](Cc2c[nH]c3ccccc23)C(=O)N1C [Example 6027] ({CH2CO}-Y[NMeA]DPHL[Hyp]W[Dab]W[NMeNle][NMeNle]LCG-NH2; thioether N-14) | 0.158 to 4.71 nM | 0.385 to 6.74 nM |  |
| CCCC[C@H]1C(=O)N(C)[C@@H](CCOC)C(=O)N[C@@H](CCCNC(=N)N)C(=O)N[C@H](C(=O)NCC(N)=O)CSCC(=O)N[C@@H](Cc2ccc(O)cc2)C(=O)N(C)[C@@H](C)C(=O)N[C@@H](CC(N)=O)C(=O)N2CCC[C@H]2C(=O)N[C@@H](Cc2cnc[nH]2)C(=O)N[C@@H](CC(C)C)C(=O)N2C[C@H](O)C[C@@H]2C(=O)N[C@@H](Cc2c[nH]c3ccccc23)C(=O)N[C@@H](CO)C(=O)N[C@@H](Cc2csc3ccccc23)C(=O)N1C [Example 9006] ({CH2CO}-Y[NMeA]NPHL[d(cisHyp)]WS[Bta][NMeNle][NMehSer](Me)RCG-NH2; thioether N-14) | 0.158 to 4.71 nM | 0.385 to 6.74 nM |  |
| CCCC[C@@H]1NC(=O)CSC[C@@H](C(=O)NCC(N)=O)NC(=O)[C@H](CC(C)C)NC(=O)[C@H](Cc2ccc(O)cc2)NC(=O)[C@H](Cc2c[nH]c3ccccc23)NC(=O)CN(C)C(=O)[C@H](Cc2ccc(O)cc2)NC(=O)[C@H](Cc2ccccc2)N(C)C(=O)[C@H](C(C)C)NC(=O)[C@H](CC(=O)O)NC(=O)CN(C)C(=O)[C@H](CCCC)N(C)C(=O)[C@H](Cc2ccccc2)N(C)C1=O [Example 3171] (HELM PEPTIDE1{[O=C(C[*:3])[*:2]].[Nle].[meF].[CCCC[C@@H](C(=O)[*:2])N(C)[*:1]].[Sar].D.V.[meF].Y.[Sar].W.Y.L.C.G.[am]}$PEPTIDE1,PEPTIDE1,1:R3-14:R3$$$V2.0) |  | > 30.5 nM | > 74.3 nM |
| CCCC[C@H]1C(=O)N(C)[C@@H](CCCC)C(=O)N[C@@H](CCCCN)C(=O)N[C@H](C(=O)NCC(N)=O)CSCC(=O)N[C@@H](Cc2ccc(O)cc2)C(=O)N(C)[C@@H](C)C(=O)N[C@@H](CC(=O)O)C(=O)N2CCC[C@H]2C(=O)N[C@@H](Cc2c[nH]cn2)C(=O)N[C@@H](CCC(N)=O)C(=O)N2C[C@H](O)C[C@H]2C(=O)N[C@@H](Cc2c[nH]c3ccccc23)C(=O)N[C@@H](CO)C(=O)N[C@@H](Cc2c[nH]c3ccccc23)C(=O)N1C [Example 5120] ({CH2CO}-Y[NMeA]DPHQ[Hyp]WSW[NMeNle][NMeNle]KCG-NH2; thioether N-14) | 0.158 to 4.71 nM | 0.385 to 6.74 nM |  |
